Assay results taken from paper PMC11662004 (Communications Chemistry, 2024).
Values joined by “and” are separate entries in the source; they are usually repeats but may differ in a detail not shown here. Identical values can stand only once. Like-named read-outs stand apart in the source and are kept apart here.

Columns and labels:
NgTet1 [1] = target: T1, NgTet1 (Naegleria gruberi, UniProt D2W6T1); assay: biochemical; conditions: for normalised activity, %: AlphaScreen
T1 construct: His6-tagged full-length Naegleria gruberi NgTet1 (321 a. a.) protein with a thrombin cleavage site; made in house; host or cells: E. coli BL21(DE3)
T1 sequence (D2W6T1 1-321): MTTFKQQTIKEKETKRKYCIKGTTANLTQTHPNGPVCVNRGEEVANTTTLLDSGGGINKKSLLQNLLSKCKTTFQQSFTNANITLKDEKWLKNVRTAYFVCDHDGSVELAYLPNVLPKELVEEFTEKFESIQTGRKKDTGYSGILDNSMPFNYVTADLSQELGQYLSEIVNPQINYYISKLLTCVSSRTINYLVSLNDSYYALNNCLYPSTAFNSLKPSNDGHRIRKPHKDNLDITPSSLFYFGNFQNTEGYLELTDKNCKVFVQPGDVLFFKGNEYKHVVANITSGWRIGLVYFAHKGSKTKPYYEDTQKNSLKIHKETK
Protocol: (Fig. 5a), were screened for inhibitory activity against NgTet1.
(§1) Activity was normalised against reactions containing vehicle (DMSO). […] AS data shown as the mean of three experimental replicates (n = 3; mean ± SD); ^1H NMR data plotted from two independent replicates (n = 2); tabulated data reported as the mean of two and three independent replicates for ^1H NMR and AS, respectively (n = 2–3, SD reported for n = 3). N. d.: not determined; AS: AlphaScreen.
Compounds in DMSO (100 nL) were pre-dispensed in a logarithmically linear concentration gradient onto 384-well ProxiPlates using an Echo® 550 acoustic liquid handler (Labcyte). NgTet1 was pre-incubated with the inhibitor dilution series in DMSO at room temperature for 10 min. Reactions were initiated by the addition of appropriate cofactors and DNA. […] The reactions were quenched by the addition of 30 mM EDTA (pH 4.2), 358 mM NaCl (5 μL) within the enzyme linear activity window (determined in Fig. S10). Concurrently, a mixture containing the anti-^5hmC antibody (1:2000 dilution) and AlphaScreen beads (1:62.5 dilution) in assay buffer was prepared and incubated at room temperature for 30 min. The AlphaScreen bead/antibody mixture was added to the quenched NgTet1 reactions (5 μL), and the complete mixture was incubated at room temperature for 1 h. Chemiluminescence was measured on a PHERAstar FS/FSX (BMG Labtech) equipped with an AlphaScreen 680 570 module. All AlphaScreen bead manipulations were performed under subdued lighting. Inhibition data was normalised to reactions containing vehicle only (1% v/v DMSO) and fitted using “log(inhibitor) vs. response—Variable slope (four parameters)” non-linear regression model on GraphPad Prism 5.

NgTet1 [2] = target: T1, NgTet1; assay: biochemical; conditions: for potency change in the presence of non-substrate 5HC DNA: uncoupled 2OG turnover; for IC50: 5 μM NgTet1, 50 μM 2OG
Protocol: as §1
(§2) All ^1H NMR spectra were recorded at 25 °C using D2O as a reference for internal deuterium lock on a Bruker Avance III 700 MHz equipped with an inverse TCI cryoprobe in 3 or 5 mm diameter tubes with a total sample volume of 160 or 565 μL, respectively. The water signal was reduced using Perfect Echo excitation sculpting suppression. Chemical shifts are reported in ppm relative to D2O (δH = 4.70 ppm).
NgTet1 was pre-incubated with inhibitor dilution series in DMSO-d6 at room temperature for 10 min (50 mM Tris-d11 [pH 7.5], 2% v/v DMSO-d6). Reactions were initiated by the addition of appropriate cofactors and DNA. […] The reactions were quenched by the addition of 9 mM NOG and 9 mM ZnCl2 in 90 mM Tris-d11 [pH 7.5] (20 μL) within the enzyme linear activity window (determined in Figure. S10). Samples were transferred to NMR tubes and subjected to ^1H NMR analysis. Data were processed as described above. Inhibition data was normalised to reactions containing vehicle only (1% v/v DMSO-d6) and fitted using “log(inhibitor) vs. response - Variable slope (four parameters)” non-linear regression model on GraphPad Prism 5.
Activity was normalised against reactions containing vehicle only (100% activity). Data is shown as the mean of 2 independent replicates (n = 2; […]
Fig. S10 Determination of linear NgTet1 enzymatic activity windows for inhibitor characterisation. a 1H NMR succinate detection time courses with no DNA, 5HC DNA (double- […]
complementary 5'-ACC AC5mC GGT GGT-3'). b AlphaScreen 5hmC detection time course using […]
courses shown. 1H NMR reaction conditions: 5 μM NgTet1, 2 mM sodium L-ascorbate, 100 μM […]
v/v D2O. DNA was added to a final concentration of 20 μM of double-stranded DNA. […]

NgTet1 [3] = target: T1, NgTet1; assay type: biochemical; conditions: for Km: read-out: KM^app (2OG)
Protocol: Double-stranded 12 bp DNA oligomers were added at a final concentration of 20 µM. […]
Double-stranded DNA oligomers were added at a final concentration of 20 µM. […]
as §2
Spectrometer settings were determined using a control sample containing all reaction components excluding enzyme. TET enzyme was added to an identical sample, and the resulting assay mixture was transferred to an NMR tube before deposition into the instrument. […] Spectrum recordings were carried out consecutively without delay. Data were processed using automated routines on MestReNova v14.2.0; signals of interest were integrated with absolute intensity scaling. ^1H NMR time courses reported in figures are representative results from two or three independent replicates.

[4] = 5HC DNA, NMR, -Log[inhibitor] (M) 3
[5] = 5HC DNA, NMR, -Log[inhibitor] (M) 4
[6] = 5HC DNA, NMR, -Log[inhibitor] (M) 4.5
[7] = 5HC DNA, NMR, -Log[inhibitor] (M) 5
[8] = 5HC DNA, NMR, -Log[inhibitor] (M) 5.5
[9] = 5HC DNA, NMR, -Log[inhibitor] (M) 6
[10] = 5HC DNA, NMR, -Log[inhibitor] (M) 6.5
[11] = 5HC DNA, NMR, -Log[inhibitor] (M) 7
[12] = 5HC DNA, NMR, -Log[inhibitor] (M) 7.5
[13] = IC50, 5mC DNA, NMR, 2OG decarboxylation with 20 µM 5mC DNA
[14] = IC50, No DNA, NMR, uncoupled 2OG decarboxylation, no DNA

Structure (SMILES): O=C(O)c1ccnc(C(=O)O)c1 [2,4-PDCA, 2,4-pyridinedicarboxylic acid]
- normalised activity, % (NgTet1 [1]; -Log[inhibitor] (M) 8.03235): 118.908% and 105.933% and 106.512% and 100% and 103.458% and 100.779% and 97.3678%
- IC50 (NgTet1 [1]; read-out: IC50, 5mC ssDNA, AS): 3.24 µM
- potency change in the presence of non-substrate 5HC DNA (NgTet1 [2]; 1H NMR): < 2 fold
- IC50 (NgTet1 [2]; 2OG decarboxylation with 20 µM 5HC DNA, read-out: IC50, 5HC DNA, NMR): 4.27 µM
- normalised activity, % (NgTet1 [2]; [4]): -0.17% and 2.97%
- normalised activity, % (NgTet1 [2]; 5HC DNA, NMR, -Log[inhibitor] (M) 3.5): 6.05%
- normalised activity, % (NgTet1 [2]; [5]): 6.05% and 7.57%
- normalised activity, % (NgTet1 [2]; [6]): 13.51%
- normalised activity, % (NgTet1 [2]; [7]): 30.08%
- normalised activity, % (NgTet1 [2]; [8]): 63.79% and 61.71%
- normalised activity, % (NgTet1 [2]; [9]): 84.73% and 86.47%
- normalised activity, % (NgTet1 [2]; [10]): 94.82% and 93.19%
- normalised activity, % (NgTet1 [2]; [11]): 100.33%
- normalised activity, % (NgTet1 [2]; [12]): 99.56% and 98%
- normalised activity, % (NgTet1 [2]; 5mC DNA, NMR, 2,4-PDCA series -Log[inhibitor] (M) 3): 1.811% and 1.747%
- normalised activity, % (NgTet1 [2]; 5mC DNA, NMR, -Log[inhibitor] (M) 3.47712): 1.338% and 1.107%
- normalised activity, % (NgTet1 [2]; 5mC DNA, NMR, -Log[inhibitor] (M) 3.95424): 2.094% and 0.5576%
- normalised activity, % (NgTet1 [2]; 5mC DNA, NMR, -Log[inhibitor] (M) 4.43136): 2.845% and 5.31%
- normalised activity, % (NgTet1 [2]; 5mC DNA, NMR, -Log[inhibitor] (M) 4.90848): 7.1385% and 9.765%
- normalised activity, % (NgTet1 [2]; 5mC DNA, NMR, -Log[inhibitor] (M) 5.38561): 30.9766% and 31.0028%
- normalised activity, % (NgTet1 [2]; 5mC DNA, NMR, -Log[inhibitor] (M) 5.86273): 71.7609% and 72.2416%
- normalised activity, % (NgTet1 [2]; 5mC DNA, NMR, -Log[inhibitor] (M) 6.33985): 92.2674% and 93.2727%
- normalised activity, % (NgTet1 [2]; 5mC DNA, NMR, -Log[inhibitor] (M) 6.81697): 96.6317% and 94.5918%
- normalised activity, % (NgTet1 [2]; 5mC DNA, NMR, -Log[inhibitor] (M) 7.29409): 100.253% and 99.2143%
- IC50 (NgTet1 [2]; [13]): 2.45 µM
- IC50 (NgTet1 [2]; [14]): 8.13 µM
- normalised activity, % (NgTet1 [2]; No DNA, NMR, -Log[inhibitor] (M) 3): 1.858% and 5.513%
- normalised activity, % (NgTet1 [2]; No DNA, NMR, -Log[inhibitor] (M) 3.47712): 5.794% and 4.915%
- normalised activity, % (NgTet1 [2]; No DNA, NMR, -Log[inhibitor] (M) 3.95424): 6.819% and 9.688%
- normalised activity, % (NgTet1 [2]; No DNA, NMR, -Log[inhibitor] (M) 4.43136): 23.271% and 23.2057%
- normalised activity, % (NgTet1 [2]; No DNA, NMR, -Log[inhibitor] (M) 4.90848): 39.7721% and 42.1215%
- normalised activity, % (NgTet1 [2]; No DNA, NMR, -Log[inhibitor] (M) 5.38561): 73.0359% and 62.1963%
- normalised activity, % (NgTet1 [2]; No DNA, NMR, -Log[inhibitor] (M) 5.86273): 95.5986% and 84.3948%
- normalised activity, % (NgTet1 [2]; No DNA, NMR, -Log[inhibitor] (M) 6.33985): 102.544% and 92.4597%
- normalised activity, % (NgTet1 [2]; No DNA, NMR, -Log[inhibitor] (M) 6.81697): 101.45% and 102.432%
- normalised activity, % (NgTet1 [2]; No DNA, NMR, -Log[inhibitor] (M) 7.29409): 100.407% and 97.5514%

Structure (SMILES): O=C(O)CCC(=O)C(=O)O [2OG, 2-oxoglutarate]
- decrease of 2OG KM^app on substrate saturation (NgTet1 [3]; 20 µM 5mC DNA vs no DNA): ~2 fold
- Vmax^app (NgTet1 [3]; No DNA): 2.83 µM/min
- kcat^app (NgTet1 [3]; No DNA): 0.0095 s⁻¹
- Km (NgTet1 [3]; No DNA, 5 μM NgTet1): 284 µM
- Km (NgTet1 [3]; with 20 µM 5mC DNA): 150 µM
- Vmax^app (NgTet1 [3]; with 20 µM 5mC DNA): 8.31 µM/min

Structure (SMILES): O=C(O)c1ccc(O)c2ncccc12 [IOX1, 5-carboxy-8-hydroxyquinoline]
- IC50 (NgTet1 [1]): 26.3 µM
- normalised activity, % (NgTet1 [1]; -Log[inhibitor] (M) 4.00432): -0.5677% and -0.5665% and -1.091%
- normalised activity, % (NgTet1 [1]; -Log[inhibitor] (M) 4.5272): 43.4249% and 52.8284% and 51.0837%
- normalised activity, % (NgTet1 [1]; -Log[inhibitor] (M) 5.00432): 78.4888% and 85.3739% and 75.186%
- normalised activity, % (NgTet1 [1]; -Log[inhibitor] (M) 5.60638): 80.6565% and 92.476% and 89.0303%
- normalised activity, % (NgTet1 [1]; -Log[inhibitor] (M) 6.0945): 91.4843% and 93.7065% and 96.6507%
- normalised activity, % (NgTet1 [1]; -Log[inhibitor] (M) 6.61738): 100.743% and 110.536% and 100.94%
- normalised activity, % (NgTet1 [1]; -Log[inhibitor] (M) 7.0945): 88.4496% and 111.251% and 97.2074%
- normalised activity, % (NgTet1 [1]; -Log[inhibitor] (M) 7.69656): 87.9129% and 106.34% and 94.3692%
- normalised activity, % (NgTet1 [1]; -Log[inhibitor] (M) 8.20844): 99.4426% and 116.115% and 101.926%
- normalised activity, % (NgTet1 [1]; -Log[inhibitor] (M) 8.73132): 100% and 102.574%
- potency change in the presence of non-substrate 5HC DNA (NgTet1 [2]; 1H NMR): < 2 fold
- normalised activity, % (NgTet1 [2]; [4]): 3.36% and 6.05%
- normalised activity, % (NgTet1 [2]; [5]): 65.88% and 69.85%
- normalised activity, % (NgTet1 [2]; [6]): 102.42% and 107.78%
- normalised activity, % (NgTet1 [2]; [7]): 115.52% and 112.71%
- normalised activity, % (NgTet1 [2]; [8]): 111.12% and 108.5%
- normalised activity, % (NgTet1 [2]; [9]): 104.59% and 105.6%
- normalised activity, % (NgTet1 [2]; [10]): 111.93% and 98%
- normalised activity, % (NgTet1 [2]; [11]): 104.59% and 103.37%
- normalised activity, % (NgTet1 [2]; [12]): 102.45% and 101.86%
- potency decreased relative to AS assay (NgTet1 [2]; 5mC DNA substrate-saturating conditions, 1H NMR): 5 fold
- IC50 (NgTet1 [2]; IC50, 5HC DNA, NMR, 2OG decarboxylation with 20 µM 5HC DNA): 110 µM
- IC50 (NgTet1 [2]; [13]): 123 µM
- IC50 (NgTet1 [2]; [14]): 57.5 µM
